Measured values reported in patent publication US20090131309A1, “ICA512 COUPLES INSULIN SECRETION AND GENE EXPRESSION IN BETA-CELLS” (Technische Universität Dresden Medizinizche Fakultät Carl …, priority 2004, published 2009).

Test system: ICA512-TMF
Test: Stimulus-induced cleavage of ICA512-TMF in INS-1 cells (western blot)
Type: cell-based, rat
Procedure: Cell extracts and western blotting. Wild type and transfected INS-1 cells and rat pancreatic islets (350-450) were pre-incubated for 60 minutes in resting buffer containing 0 mM glucose and 5 mM KCl and then incubated for various times in fresh resting or stimulating buffer including 25 mM glucose and 55 mM KCl, as previously described (7). […] Next, the cells were washed with ice cold PBS, and extracted in lysis buffer (10 mM Tris-HCl at pH 8.0, 140 mM NaCl, 1% Triton X-100, 1 mM EDTA, 1 mM PMSF, and 1% protease inhibitor cocktail (Sigma, St. Louis, Mo.) at 4° C. Cytosolic and nuclear extracts were prepared using the NE-PER Nuclear and Cytoplasmic Extraction Reagents (Pierce, Rockford, Ill.) in accordance with the manufacturer's instructions. Protein concentration was measured using the Bio-Rad Protein Assay Reagent (Bio-Rad, Hercules, Calif.). Equivalent amount of protein was separated by 8-10% SDS-PAGE, except for nuclear extracts, in which case half of the protein were loaded compared to the corresponding cytosolic extracts. After protein transferring, nitrocellulose filters were incubated with the following antibodies: mouse monoclonal anti-ICA512 (6), anti-μ-calpain (Chemicon, Temecula, Calif.), anti-γ-tubulin and anti-HA (Sigma), anti-GFP (Clontech); rabbit polyclonals anti-Glut2 (Alpha Diagnostics International, St Antonio, Tex.), anti-CPE (Chemicon), anti-GFP (Molecular Probes, Eugene, Oreg.) and anti-HA (kind gift of Christoph Thiele). Chemiluminescence was developed using the Supersignal West Pico Substrate (Pierce) as substrate and detected with a LAS 3000 Bioimaging System (Fuji, Tokyo, Japan). Quantitation of protein signals was performed with the Image Gauge v3.45 software (Fuji).

In the case of `CCCC[C@@H](C=O)NC(=O)[C@H](CC(C)C)NC(=O)OCc1ccccc1` [calpeptin], the “Ca2+-dependent cleavage of ICA512-TMF cytoplasmic domain upon stimulation” value (INS-1 cells, stimulating buffer (25 mM glucose, 55 mM KCl) 105 min, western blot) is reported as “prevented in a dose-dependent manner”, the “stimulation induced proteolysis of ICA512-TMF-GFP” value (cytosolic extracts of ICA512-GFP INS-1 cells, 60 μM calpeptin) is reported as “calpeptin-sensitive proteolysis of ICA512-TMF-GFP” and the “increased proteolysis of ICA512-TMF in dynamin 1 (K44A)-GFP cells” value (stimulated INS-1 cells expressing dynamin 1 (K44A)-GFP) is reported as “inhibited by calpeptin in a dose-dependent fashion”.
